Assay results: paper PMC5130005, “Indolin-2-one compounds targeting thioredoxin reductase as potential anticancer drug leads” (Oncotarget, 2016)

Experiments:
HCT 116 cells = experiment: ROS determination (carboxy-H2DCFDA, DCF fluorescence); assay type: cell-based, human; details: 50 μM, 3 h, versus DMSO control
Description: Oxidative stress was assessed through estimating the level of ROS using the H2DCFDA assay with modifications. Briefly, HCT 116 cells were seeded in 6-well plates and incubated for 24-48 h at 37°C till 70-80% confluency. They were treated with H2O2 (200 μM) or compounds 4 and 5 (20, 30, 40 or 50 μM) for 3 h. Following treatment, cells were washed with PBS and incubated with 10 μM carboxy-H2DCFDA in PBS at 37°C in the dark for 45 min to allow reaction between taken up H2DCF and ROS. The cells were collected, washed with cold PBS, pelleted, resuspended in 200 μl of PBS and transferred to wells in a 96-well black fluorescence plate. The fluorescence intensities were measured at an excitation wavelength of 485 nm and an emission wavelength of 530 nm using a Tecan Infinite M200 Pro microplate reader. The results were expressed as a percentage of fluorescence intensities measured in drug-treated cells over those produced in DMSO-treated cells.

recombinant rat TrxR = target: T1, recombinant rat TrxR (Rattus norvegicus, UniProt O89049); experiment: juglone reduction versus DTNB reduction by recombinant rat TrxR; assay type: biochemical; details: 15 min incubation, 15 nM TrxR, 250 μM NADPH, 1-100 μM
T1 construct: made in house
T1 sequence (O89049 1-499): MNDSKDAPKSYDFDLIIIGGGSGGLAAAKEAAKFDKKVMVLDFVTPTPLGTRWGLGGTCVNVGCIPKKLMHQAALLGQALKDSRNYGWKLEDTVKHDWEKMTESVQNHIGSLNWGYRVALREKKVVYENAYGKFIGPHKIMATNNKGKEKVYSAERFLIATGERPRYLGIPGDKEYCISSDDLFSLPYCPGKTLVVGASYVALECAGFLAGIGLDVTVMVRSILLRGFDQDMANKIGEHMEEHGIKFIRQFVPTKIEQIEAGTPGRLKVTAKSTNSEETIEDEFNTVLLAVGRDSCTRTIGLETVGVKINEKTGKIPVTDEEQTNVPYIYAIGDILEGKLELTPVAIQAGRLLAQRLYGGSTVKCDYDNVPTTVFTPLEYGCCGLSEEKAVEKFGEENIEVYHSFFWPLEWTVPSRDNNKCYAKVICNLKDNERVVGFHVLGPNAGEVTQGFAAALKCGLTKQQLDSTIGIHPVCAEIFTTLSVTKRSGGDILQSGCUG
Description: The assay, designed to determine the ability of mammalian TrxR to reduce juglone at the N-terminal active center, was performed as described previously. Briefly, 2 μl of diluted DMSO stocks of compounds 4 and 5 (final concentrations 1-100 μM) were incubated in 198 μl of 15 nM recombinant rat TrxR, 250 μM NADPH and 0.1 mg/ml BSA in TE buffer at room temperature in 96-well plates for 15 min. 100 mM stock solution of juglone in DMSO was prepared fresh for each experiment and diluted in TE buffer to a 300 μM working solution. The incubation was terminated by the addition of 100 μl of 300 μM juglone solution (final concentration 100 μM), and NADPH consumption was monitored at 340 nm for 5 min using the VersaMax microplate reader. The linear decrease in NADPH absorbance was used for calculating juglone reduction activity. The results were expressed as % of TrxR juglone reduction activity of drug-treated sample over that of DMSO-treated sample.
The experiments were performed at the same time with a corresponding DTNB reduction assay as described above with modifications so as to keep the experimental parameters and conditions similar to those in the juglone reduction assay. […] Following 15 min incubation with compound 4 or 5, 50 μl of 8.75 μM DTNB solution (final concentration 1.75 μM) was added to each well and DTNB reduction was measured at 412 nm for 2 min.

SMILES: CC(=O)/C=C1/C(=O)N(Cc2ccccc2)c2ccccc21 [Compound 5]
- DCF fluorescence (cellular oxidative stress) (HCT 116 cells): markedly increased DCF fluorescence
- juglone reduction compared with DTNB reduction by inhibited TrxR (recombinant rat TrxR): juglone reduction was more preserved than DTNB reduction

SMILES: CCCCN1C(=O)/C(=C/C(C)=O)c2ccccc21 [Compound 4]
- DCF fluorescence (cellular oxidative stress) (HCT 116 cells): markedly increased DCF fluorescence
- juglone reduction compared with DTNB reduction by inhibited TrxR (recombinant rat TrxR): juglone reduction was more preserved than DTNB reduction
